Measured values: ChEMBL document CHEMBL4393715, “Design, synthesis and biological evaluation of the thioether-containing lenalidomide analogs with anti-proliferative activities” (Eur J Med Chem, 2019)
Values belong to the compound of their own block, whether it stands above or below them.

Columns and labels:
[1] = tested on: PBMC; assay: Antiinflammatory activity in human PBMC cells assessed as reduction in LPS-induced TNF-alpha production preincubated for 1 hr followed by LPS addition and measured after 18 to 20 hrs by ELISA; type: functional, cell-based
[2] = tested on: THP-1; assay: Antiproliferative activity against human THP1 cells measured after 168 hrs by CellTiter96 Aqueous non-radioactive cell proliferation assay; type: functional, cell-based; conditions: THP-1, 168 h
[3] = tested on: MM1.S; assay: Antiproliferative activity against human MM1S cells measured after 168 hrs by CellTiter96 Aqueous non-radioactive cell proliferation assay; type: functional, cell-based
[4] = tested on: PBMC; assay: Cytotoxicity against human PBMC cells by CellTiter96 Aqueous non-radioactive cell proliferation assay; type: cell-based
[5] = tested on: Z-138; assay: Antiproliferative activity against human Z138 cells measured after 72 hrs by CellTiter96 Aqueous non-radioactive cell proliferation assay; type: functional, cell-based; conditions: Z-138, 72 h
[6] = Antiproliferative activity against human Mino cells measured after 72 hrs by CellTiter96 Aqueous non-radioactive cell proliferation assay; type: functional, cell-based
[7] = tested on: Kasumi 1; assay: Antiproliferative activity against human Kasumi-1 cells measured after 168 hrs by CellTiter96 Aqueous non-radioactive cell proliferation assay; type: functional, cell-based; conditions: Kasumi 1, 168 h
[8] = tested on: RPMI-8226; assay: Antiproliferative activity against human RPMI8226 cells measured after 72 hrs by CellTiter96 Aqueous non-radioactive cell proliferation assay; type: functional, cell-based; conditions: RPMI-8226, 72 h
[9] = tested on: JeKo-1; assay: Antiproliferative activity against human JeKo1 cells measured after 72 hrs by CellTiter96 Aqueous non-radioactive cell proliferation assay; type: functional, cell-based; conditions: JeKo-1, 72 h
[10] = tested on: U-266; assay: Antiproliferative activity against human U266 cells measured after 72 hrs by CellTiter96 Aqueous non-radioactive cell proliferation assay; type: functional, cell-based; conditions: U-266, 72 h
[11] = tested on: Raji; assay: Antiproliferative activity against human Raji cells measured after 168 hrs by CellTiter96 Aqueous non-radioactive cell proliferation assay; type: functional, cell-based
[12] = tested on: MV4-11; assay: Antiproliferative activity against human MV411 cells measured after 168 hrs by CellTiter96 Aqueous non-radioactive cell proliferation assay; type: functional, cell-based; conditions: MV4-11, 168 h
[13] = Cmax in BALB/c mouse at 20 mg/kg, po and measured up to 24 hrs by LC-MS/MS analysis; type: ADME, organism-based; design: dose 20 mg/kg, route oral; conditions: in vivo
[14] = AUC (infinity) in BALB/c mouse at 20 mg/kg, po and measured up to 24 hrs by LC-MS/MS analysis; type: ADME, organism-based; design: dose 20 mg/kg, route oral, time infinity; conditions: in vivo
[15] = Tmax in BALB/c mouse at 20 mg/kg, po and measured up to 24 hrs by LC-MS/MS analysis; type: ADME, organism-based; conditions: in vivo
[16] = MRT (infinity) in BALB/c mouse at 5 mg/kg, iv and measured up to 24 hrs by LC-MS/MS analysis; type: ADME, organism-based; conditions: in vivo
[17] = Clearance in BALB/c mouse at 5 mg/kg, iv and measured up to 24 hrs by LC-MS/MS analysis; type: ADME, organism-based; conditions: in vivo
[18] = Volume of distribution at steady state in BALB/c mouse at 5 mg/kg, iv and measured up to 24 hrs by LC-MS/MS analysis; type: ADME, organism-based; conditions: in vivo, read-out: Vdss
[19] = AUC (infinity) in BALB/c mouse at 5 mg/kg, iv and measured up to 24 hrs by LC-MS/MS analysis; type: ADME, organism-based; design: dose 5 mg/kg, route intravenous, time infinity; conditions: in vivo
[20] = Terminal elimination half life in BALB/c mouse at 20 mg/kg, po and measured up to 24 hrs by LC-MS/MS analysis; type: ADME, organism-based; conditions: in vivo, read-out: LambdaZ (converted)
[21] = Oral bioavailability in BALB/c mouse at 20 mg/kg and measured up to 24 hrs by LC-MS/MS analysis; type: ADME, organism-based; conditions: in vivo
[22] = Half-life in BALB/c mouse at 5 mg/kg, iv and measured up to 24 hrs by LC-MS/MS analysis; type: ADME, organism-based; conditions: in vivo

Compound: Nc1cccc2c1C(=O)N(C1CCC(=O)NC1=O)C2 (centres undefined)
IC50 [1]: > 100000 nM

Compound: Nc1ccc2c(c1)C(=O)N(C1CCC(=O)NC1=O)C2 (centres undefined)
IC50 [1]: > 100000 nM

Compound: Nc1ccc2c(c1)CN(C1CCC(=O)NC1=O)C2=O (centres undefined)
IC50 [1]: > 100000 nM

Compound: Cc1ccc(NC(=O)NCc2ccc3c(c2)CN(C2CCC(=O)NC2=O)C3=O)cc1Cl (centres undefined)
IC50 [2]: 1.5 nM | IC50 [3]: 0.3 nM | IC50 [4]: 0.3 nM | IC50 [5]: 0.4 nM | IC50 [6]: 0.4 nM | IC50 [7]: 0.8 nM | IC50 [8]: 5.5 nM | IC50 [9]: 1.2 nM | IC50 [10]: 2 nM | IC50 [11]: 20.4 nM | IC50 [12]: 0.2 nM

Compound: NC(=O)c1ccc(CSc2cccc3c2CN(C2CCC(=O)NC2=O)C3=O)cc1 (centres undefined)
IC50 [6]: 35.4 nM

Compound: COC(=O)c1ccc(CSc2cccc3c2CN(C2CCC(=O)NC2=O)C3=O)cc1 (centres undefined)
IC50 [6]: 7.4 nM

Compound: CC(C)(C)OC(=O)c1ccc(CSc2cccc3c2CN(C2CCC(=O)NC2=O)C3=O)cc1 (centres undefined)
IC50 [6]: 1.1 nM

Compound: CC1CC(C)CN(C(=O)c2ccc(CSc3cccc4c3CN(C3CCC(=O)NC3=O)C4=O)cc2)C1 (centres undefined)
IC50 [6]: 6 nM

Compound: O=C1CCC(N2Cc3c(SCc4ccc(C(=O)N5CCOCC5)cc4)cccc3C2=O)C(=O)N1 (centres undefined)
IC50 [6]: 1.9 nM

Compound: O=C1CCC(N2Cc3c(SCc4ccccc4Cl)cccc3C2=O)C(=O)N1 (centres undefined)
IC50 [3]: 1.1 nM | IC50 [6]: 11.6 nM | IC50 [12]: > 20000 nM

Compound: O=C1CCC(N2Cc3c(SCc4ccc(CN5CCOCC5)cc4)cccc3C2=O)C(=O)N1 (centres undefined)
Cmax [13]: 496 ng/mL | AUC(0-inf) [14]: 288 ng·h/mL | Tmax [15]: 8.4 min | MRT inf [16]: 22.2 min | IC50 [6]: 3.3 nM | clearance [17]: 210 mL/min/kg | Vd [18]: 4.69 L/kg | AUC(0-inf) [19]: 397 ng·h/mL | half-life [20]: 85.8 min | bioavailability [21]: 17.6% | half-life [22]: 52.8 min

Compound: CCCCCSc1cccc2c1CN(C1CCC(=O)NC1=O)C2=O (centres undefined)
IC50 [3]: 1.1 nM | IC50 [6]: 160 nM | IC50 [12]: > 20000 nM

Compound: O=C1CCC(N2Cc3c(cccc3[S+]([O-])Cc3ccc(CN4CCOCC4)cc3)C2=O)C(=O)N1 (centres undefined)
IC50 [6]: 100 nM

Compound: O=C1CCC(N2Cc3c(cccc3S(=O)(=O)Cc3ccc(CN4CCOCC4)cc3)C2=O)C(=O)N1 (centres undefined)
IC50 [6]: > 20000 nM

Compound: CC1CN(C(=O)c2ccc(CSc3cccc4c3CN(C3CCC(=O)NC3=O)C4=O)cc2)CC(C)O1 (centres undefined)
IC50 [6]: 6.5 nM

Compound: CN1CCN(C(=O)c2ccc(CSc3cccc4c3CN(C3CCC(=O)NC3=O)C4=O)cc2)CC1 (centres undefined)
IC50 [6]: 3.4 nM

Compound: CSc1cccc2c1CN(C1CCC(=O)NC1=O)C2=O (centres undefined)
IC50 [3]: 2.1 nM | IC50 [6]: 930 nM | IC50 [12]: > 20000 nM

Compound: CCNC(=O)c1ccc(CSc2cccc3c2CN(C2CCC(=O)NC2=O)C3=O)cc1 (centres undefined)
IC50 [6]: 4.2 nM

Compound: O=C1CCC(N2Cc3c(SCc4ccc(C(=O)N5CCCCC5)cc4)cccc3C2=O)C(=O)N1 (centres undefined)
Cmax [13]: 16.7 ng/mL | AUC(0-inf) [14]: 34.1 ng·h/mL | Tmax [15]: 30 min | MRT inf [16]: 27 min | IC50 [6]: 0.5 nM | clearance [17]: 197 mL/min/kg | Vd [18]: 5.31 L/kg | AUC(0-inf) [19]: 424 ng·h/mL | half-life [20]: 84.6 min | bioavailability [21]: 2.9% | half-life [22]: 42 min

Compound: CNC(=O)c1ccc(CSc2cccc3c2CN(C2CCC(=O)NC2=O)C3=O)cc1 (centres undefined)
IC50 [6]: 28.3 nM

Compound: Nc1cccc2c1CN(C1CCC(=O)NC1=O)C2=O (centres undefined) [LENALIDOMIDE]
IC50 [2]: > 20000 nM | IC50 [3]: 50 nM | IC50 [4]: > 20000 nM | IC50 [5]: > 20000 nM | IC50 [6]: > 20000 nM | IC50 [7]: > 20000 nM | IC50 [8]: > 20000 nM | IC50 [9]: > 20000 nM | IC50 [10]: > 20000 nM | IC50 [11]: > 20000 nM | IC50 [12]: > 20000 nM

Now from value to compound, other results behind:

IC50 [2]: > 20000 nM | IC50 [3]: 1.3 nM | IC50 [8]: 200 nM | IC50 [11]: > 20000 nM | IC50 [12]: > 20000 nM
Compound: N#Cc1ccc(CSc2cccc3c2CN(C2CCC(=O)NC2=O)C3=O)cc1 (centres undefined)
IC50 [4]: > 20000 nM | IC50 [5]: > 20000 nM | IC50 [6]: 3.7 nM | IC50 [7]: > 20000 nM | IC50 [9]: > 20000 nM | IC50 [10]: > 20000 nM

IC50 [3]: 0.9 nM | IC50 [12]: > 20000 nM
Compound: O=C1CCC(N2Cc3c(SCc4cccc(F)c4)cccc3C2=O)C(=O)N1 (centres undefined)
IC50 [6]: 4.3 nM

IC50 [3]: 1.1 nM | IC50 [12]: > 20000 nM
Compound: O=C1CCC(N2Cc3c(SCc4cccc(Cl)c4)cccc3C2=O)C(=O)N1 (centres undefined)
IC50 [6]: 2.4 nM

IC50 [3]: 1.4 nM | IC50 [12]: > 20000 nM
Compound: N#Cc1cccc(CSc2cccc3c2CN(C2CCC(=O)NC2=O)C3=O)c1 (centres undefined)
IC50 [6]: 8 nM

IC50 [3]: 0.4 nM | IC50 [12]: > 20000 nM
Compound: Cc1cccc(CSc2cccc3c2CN(C2CCC(=O)NC2=O)C3=O)c1 (centres undefined)
IC50 [6]: 3.3 nM

IC50 [2]: > 20000 nM | IC50 [3]: 0.4 nM | IC50 [8]: 5.4 nM | IC50 [11]: > 20000 nM | IC50 [12]: > 20000 nM
Compound: Cc1ccc(CSc2cccc3c2CN(C2CCC(=O)NC2=O)C3=O)cc1 (centres undefined)
IC50 [4]: > 20000 nM | IC50 [5]: > 20000 nM | IC50 [6]: 2.9 nM | IC50 [7]: > 20000 nM | IC50 [9]: > 20000 nM | IC50 [10]: 5.6 nM

IC50 [3]: 2.9 nM | IC50 [12]: > 20000 nM
Compound: N#Cc1ccccc1CSc1cccc2c1CN(C1CCC(=O)NC1=O)C2=O (centres undefined)
IC50 [6]: 30.5 nM

IC50 [2]: > 20000 nM | IC50 [3]: 0.9 nM | IC50 [8]: 40 nM | IC50 [11]: > 20000 nM | IC50 [12]: > 20000 nM
Compound: O=C1CCC(N2Cc3c(SCc4ccc(F)cc4)cccc3C2=O)C(=O)N1 (centres undefined)
IC50 [4]: > 20000 nM | IC50 [5]: > 20000 nM | IC50 [6]: 2.6 nM | IC50 [7]: > 20000 nM | IC50 [9]: > 20000 nM | IC50 [10]: 2.6 nM

IC50 [3]: 0.6 nM | IC50 [12]: > 20000 nM
Compound: O=C1CCC(N2Cc3c(SCc4ccccc4F)cccc3C2=O)C(=O)N1 (centres undefined)
IC50 [6]: 2.9 nM

IC50 [3]: 1.8 nM | IC50 [12]: > 20000 nM
Compound: Cc1ccccc1CSc1cccc2c1CN(C1CCC(=O)NC1=O)C2=O (centres undefined)
IC50 [6]: 16.6 nM

IC50 [3]: 1.1 nM | IC50 [12]: > 20000 nM
Compound: O=C1CCC(N2Cc3c(SCc4ccccc4)cccc3C2=O)C(=O)N1 (centres undefined)
IC50 [6]: 6.3 nM
